Values quoted from earlier work as cited in US20120231996A1, “Phalloidin derivatives and methods for their synthesis” (priority 2006, published 2012).
Numbered stars: 1 amine (or outer) side, 2 acyl side, 3 side chain; on linkers, the order of the positions; unused ones are H or OH. Bridge positions count the residues as written; N and C are the ends. Square brackets hold non-standard residues; d marks the D form. Peptide text beside a SMILES is read from it. Trp(2-yl) = O=C([C@H](Cc1c([*:3])[nH]c2ccccc12)N[*:1])[*:2]; Leu(4R-OH,5-OH) = C[C@](O)(CO)C[C@H](N)C(=O)O; cisHyp = O=C(O)[C@@H]1C[C@H](O)CN1

Key:
[1] = tested on: filamentous actin (F-actin)
actin = details: in solution

SMILES: C[C@@H]1NC(=O)[C@H](C[C@@](C)(O)CO)NC(=O)[C@@H]2Cc3c([nH]c4ccccc34)SC[C@H](NC(=O)[C@@H]([C@H](C)O)NC1=O)C(=O)N1C[C@@H](O)C[C@H]1C(=O)N[C@@H](C)C(=O)N2 [Phalloidin] (cyclo(A[dT]C[cisHyp]A[Trp(2-yl)][Leu(4R-OH,5-OH)]); thioether 3-6)
- Affinity of binding to filamentous actin [1]: binds with high affinity
- Effect on critical concentration of actin polymerization (actin): lowers the critical concentration of actin polymerization
